The record followed here is patent US20230341377A1, “DISCONNECTION AGENTS” (DC Europa Limited, priority 2020, published 2023).

Structures are written as SMILES.

Assay [1] relates to patient-derived S24 glioblastoma model. The assay is described as follows: Example 4: orthotopic S24 glioblastoma in mouse brain, TPPB and radiotherapy, in vivo MPLSM imaging. The arrangement: species or system NMRI nude mice. The following applies: for tumour burden / tumour connectivity: TPPB 3 doses i.p. days 13, 14, 15 at 200 μg/kg. The source says:
8-10 weeks old male NMRI nude mice were used for all studies with human primary brain tumour cells. Cranial window implantation in mice was done in a modification of what has been previously described (see References), including a custom-made titanium ring for painless head fixation during imaging. 2-3 weeks after cranial window implantation, 30,000 tumour cells of the patient-derived S24 glioblastoma model were stereotactically injected into the mouse brain at a depth of 500 μm. Tumours were injected on day minus 35, i.e., 35 days before treatment start. Treatment was started on day 0.
Control animals (top row of FIG. 3) were untreated. TPPB continuous treatment (middle row) was administered intraperitoneally once per day on days 0 to 28 at variable daily doses ranging from 10 to 700 μg/kg. TPPB 3 doses (bottom row of FIG. 3) were administered intraperitoneally once per day on days 13, 14 and 15 at 200 μg/kg.
Tumours were irradiated with 7 Gy on three consecutive days (days 14, 15, 16, total dose 21 Gy) in regions matching in tumour cell density using a 6 MV linear accelerator with a 6 mm collimator (adjusted to the window size) at a dose rate of 3 Gy min^−1 (Faxitron MultiRad225). The used radiation schedule is in the range of the commonly prescribed 60 Gy in 2 Gy. fractions for malignant glioma patients, assuming an α/β of ˜10 in the linear quadratic model and taking into account the radiation time of 3 days.
MPLSM imaging was done with a Zeiss 7MP microscope (Zeiss) equipped with a Coherent Chameleon Ultrall laser (Coherent). MPLSM images were acquired by the ZEISS ZEN Software.
White to light gray areas of images in FIG. 3 depict S24 glioblastoma cells growing in the mouse brain. Black or dark gray areas depict vessels or background.

Assay [2] deals with Hs578 cell line for human breast cancer, U373 cell line of human glioblastoma, and HepG2 hepatocellular carcinoma cells. The assay is described as follows: SMS assay (small molecule sharing), cell dye-sharing between cancer cells, cell lines pooled. The following applies: various doses that are not cytotoxic, in one or more cell lines. It counts as cell-based. The source says: The SMS assay was developed to assess the transfer of cell dye (for example the acetoxymethyl [AM]-based Calcein AM), between cancer cells. The SMS assay can be applied to any cell lines forming tumour networks such as tumour microtubes (TM) or tunneling nanotubes (TNT), which enable the transfer of molecules across cells. The SMS assay can be used to assess networking capabilities of any cancer cell lines including HepG2 hepatocellular carcinoma cells, Hs578T cell line for human breast cancer, and U373 cell line for human glioblastoma.
The SMS assay is illustrated in FIG. 1. For the SMS assay, two sets of cells are stained with the cell dye of choice and a customary cell tracker dye (for example cell tracker blue) using established staining techniques (steps 1 and 2). Each set of cells are then co-incubated with the compound of interest to assess its capabilities to modulate the cells small molecule sharing characteristics (step 3). Then the two sets of cells are combined on a plate, for example at a ratio of 1:1, and cultured in the presence of the compound of interest (Step 4).
Finally, live cells are evaluated for viability and analyzed by flow cytometry for the uptake of cell dye in the […] cells (Step 5). The comparison of cell tracker uptake against positive and negative control enables the assessment of the compound's ability to modulate the tumour networks including those formed by TM and TNTs
The SMS assay has been applied to assess the modulation of network sharing capabilities of Protein Kinase C Modulators (PKCm) at various concentrations in the Hs578 cell line for human breast cancer, U373 cell line of human glioblastoma, and HepG2 hepatocellular carcinoma cells. PBS vehicle was used as negative control and the PKCm PHORBOL 12-MYRISTATE 13-ACETATE (PMA) at a concentration of 5 nM was used as the positive control.
FIG. 2A and FIG. 2B show the percentage of cell tracker cells that were accepting the cell dye transfer from separately stained donor cells according to the SMS assay of Example. The percentage of acceptor cells detected is shown in comparison to vehicle (upper horizontal line) and PMA at 5-10 nM concentration (lower horizontal line). Active PKCm in the SMS assay (FIG. 2A) show a decrease in acceptor cells relative to vehicle at certain concentration. […] The upper limit of the tested concentrations was determined as the maximal non-cytotoxic dose.

`CC(C)[C@H]1C(=O)N[C@H](CO)Cc2cc(NC(=O)/C=C/C=C/c3ccc(C(F)(F)F)cc3)ccc2N1C` [TPPB, (2E,4E)-N-[(2S,5S)-1,2,3,4,5,6-Hexahydro-5-(hydroxymethyl)-1-methyl-2-(1-methylethyl)-3-oxo-1,4-benzodiazocin-8-yl]-5-[4-(trifluoromethyl)phenyl]-2,4-pentadienamide]: the tumour burden entry in assay [1] (RTx 7 Gy days 14, 15, 16, day 28) was “marked tumour regression”; in assay [1] (RTx, days 35 and 42), “complete remission from the tumour burden”. Also, the tumour connectivity entry in assay [1] (RTx, day 28) was “markedly reduced”; in assay [1] (RTx, days 35 and 42) it was “completely disconnected”. In addition, the “tumour burden and connectivity versus control” value in assay [1] (TPPB continuous i.p. once per day days 0 to 28, 10 to 700 μg/kg, RTx 7 Gy days 14, 15, 16, days 0 to 35) was “no effect against control”. Also, in assay [2], the “inhibition of cell dye-sharing in the SMS assay” value is given as “marked inhibition of cell dye-sharing”.
